This is an account of results in PMC2728841, “The Crystal Structure of the Escherichia coli Autoinducer-2 Processing Protein LsrF” (PLoS ONE, 2009).

The experiment deals with T1, LsrF (Escherichia coli, UniProt P76143).
T1 construct: His6-MBP fusion (pDEST-HisMBP) made in E. coli BL21, tag cut with TEV protease; decamer; model lacks residues 1-9, 177-180, 290-291
The experiment in a line: X-ray crystallography, crystal soak, […] Å. Conditions: 100 mM ligand soak, 5 min, 100 mM Tris pH 8.0, 100 mM MgCl2, 27.5% PEG 400; aldolase active site; non-covalent model. The class given is binding.

T1 sequence (P76143 whole entry, the tested form may be a part): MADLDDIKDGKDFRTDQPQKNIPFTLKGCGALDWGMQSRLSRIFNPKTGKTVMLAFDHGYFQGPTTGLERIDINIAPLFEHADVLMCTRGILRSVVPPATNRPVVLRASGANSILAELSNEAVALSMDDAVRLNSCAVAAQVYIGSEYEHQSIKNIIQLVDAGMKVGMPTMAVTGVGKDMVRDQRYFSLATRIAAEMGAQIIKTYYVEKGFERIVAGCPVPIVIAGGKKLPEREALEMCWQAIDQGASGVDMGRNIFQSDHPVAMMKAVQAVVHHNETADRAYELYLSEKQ

As for `O=P(O)(O)OC[C@H]1OC(O)[C@H](O)[C@@H]1O` (stereo partly shown) [ribose-5-phosphate], the “X-ray crystallography, crystal soak, 2.5 Å” value is recorded as “The final model included one ribose-5-phosphate per chain”.
